Experimental data: patent US7968554B2, “Pyrazolo[3,4-d]pyrimidine derivatives” (Hoffman-La Roche Inc., priority 2007, dated 2011)

Target: T1, b-Raf V600E (Homo sapiens, UniProt P15056, V600E)
T1 construct: recombinant human b-Raf residues 416-end containing a V600E mutation; purchased Upstate 14-5M; host or cells: baculovirus, Sf21 insect cells
Assay: b-Raf V600E mutant HTRF assay with 6H-MEK as substrate (dose response)
Type: biochemical
Details: kinase enzyme inhibition, 6H-MEK substrate, read-out: bRaf(V600E) IC50
Method: Kinase Enzyme Inhibition Assay (IC50)
• Enzyme: recombinant human b-Raf residues 416-end with N-terminal GST-tag from Upstate; (expressed by baculovirus in Sf21 insect cells), 0.26 mg/mL (3.87 μM assuming a molecular weight of 67.2 kD) Cat. #14-530M, Lot #25502AU, stored at −80° C. • Substrate: WT full-length 6H-MEK, 4.94 mg/mL (154.4 μM assuming a MW of 32 kD) stored at −15° C. • Antibodies: Rabbit (α-P-(Ser 217/221)-MEK-1/2 Ab (from Cell Signaling, Cat. #9121B, Lot 14); Eu-(α-rabbit IgG (from Wallac, Cat. #AD0083, Lot 318663, 710 ug/mL, 4.4 μM); (α-6H-SureLight-APC (from Martek, Cat. #AD0059H, Lot E012AB01, 3.03 μM). • Reader: Envision from PerkinElmer, HTRF reading mode with 412 mirror • Assay Plate: Matrix all-black polypropylene plates (Cat. #4344) • Others: Weidman 384 polypropylene plates (REMP) for compound plate. Assay Procedure: • (1) Prepare Kinase Assay Buffer (KAB): 50 mM HEPES (HyClone) pH7, 10 mM MgCl2, 1 mM DTT, 0.1 mM […], and 0.3 mg/ml BSA. • (2) Prepare 6H-MEK (150 nM) in KAB. Add 12 μL/well to the assay plate. • (3) Prepare ATP (66 μM) in KAB. • (4) Dilute compounds to 2.4 mM and any positive controls to 480 μM in DMSO. Perform 10-point 3× dilution in DMSO. Withdraw 2.5 μL/well of DMSO solution and add to 27.5 μL/well ATP solution in (3). • (5) Mix, then add 6 μL/well of solution in (4) to the assay plate for a DMSO concentration of 2.1% during MEK phosphorylation. • (6) Prepare b-Raf WT (100 μM) in KAB. • (7) Add 6 μL/well of KAB in columns 1-2 and 6 μL/well of b-Raf WT in columns 3-24. • (8) Incubate at 37° C. for 30 min. • (9) Prepare rabbit (α-P-(Ser 217/221 )-MEK-1/2 Ab (1:200 from stock) in AB1: 50 mM HEPES pH7, 0.2 mg/ml BSA, and 43 mM EDTA. • (10) To stop reaction, add 6 μL/well of solution from (9) to the assay plate and incubate at 37° C. for 30 min. • (11) Prepare Eu-(α-rabbit IgG (9 nM) and (α-6H-SureLight-APC (180 nM) in AB2: 50 mM HEPES pH7 and 0.2 mg/mL BSA. • (12) Add 6 μL/well of solution from (11) to the assay plate. • (13) For determining the spectrum cross talk factor, prepare 2 samples following steps (1) to (10). For the blank sample, add 6 μL/well of AB2. For the cross talk factor sample, add 6 μL/well of Eu-anti rabbit IgG (9 nM). • (14) Incubate at room temperature for 1.5 hours. • (15) Read HTRF signals at 615 nm and 665 nm on the Envision. Normalize HTRF signals after spectrum cross-talk correction. b-Raf V600E Mutant HTRF Assay With 6H-MEK as Substrate (Dose Response) Assay Principle:
The assay utilizes 6H-MEK as the substrate. Upon b-Raf V600E phosphorylation, phosphorylated 6H-MEK is detected with rabbit anti-phospho-MEK1/2, Eu-labeled anti-rabbit, and APC-labeled anti-6H antibodies.
Reagents and Instruments:
• Enzyme: recombinant human b-Raf residues 416-end containing a V600E mutation with N-terminal GST-tag from Upstate; (expressed by baculovirus in Sf21 insect cells), 0.26 mg/mL ([…] assuming a molecular weight of 67.3 kD) Cat. #14-5M, Lot #25633AU, stored at −80° C. • Substrate: WT full-length 6H-MEK, 4.94 mg/mL (154.4 μM assuming a MW of 32 kD) stored at −15° C. • Antibodies: Rabbit (α-P-(Ser 217/221)-MEK-1/2 Ab (from Cell Signaling, Cat. #9121B, Lot 14); Eu-(α-rabbit IgG (from Wallac, Cat. #AD0083, Lot 318663, 710 ug/mL, 4.4 μM); (α-6H-SureLight-APC (from Martek, Cat. #AD0059H, Lot E012AB01, 3.03 μM). • Reader: Envision from PerkinElmer, HTRF reading mode with 412 mirror • Assay Plate: Matrix all-black polypropylene plates (Cat. #4344) • Others: Weidman 384 polypropylene plates (REMP) for compound plate. Assay Procedure: • (1) Prepare Kinase Assay Buffer (KAB): 50 mM HEPES (HyClone) pH7, 10 mM MgCl2, 1 mM DTT, 0.1 mM […], and 0.3 mg/ml BSA. • (2) Prepare 6H-MEK (150 nM) in KAB. Add 12 μl/well to the assay plate. • (3) Prepare ATP (66 μM) in KAB. • (4) Dilute compounds to 2.4 mM and positive controls to 480 μM in DMSO. • Perform 10-point 3× dilution in DMSO. […]

T1 sequence (P15056 416-766 V600E): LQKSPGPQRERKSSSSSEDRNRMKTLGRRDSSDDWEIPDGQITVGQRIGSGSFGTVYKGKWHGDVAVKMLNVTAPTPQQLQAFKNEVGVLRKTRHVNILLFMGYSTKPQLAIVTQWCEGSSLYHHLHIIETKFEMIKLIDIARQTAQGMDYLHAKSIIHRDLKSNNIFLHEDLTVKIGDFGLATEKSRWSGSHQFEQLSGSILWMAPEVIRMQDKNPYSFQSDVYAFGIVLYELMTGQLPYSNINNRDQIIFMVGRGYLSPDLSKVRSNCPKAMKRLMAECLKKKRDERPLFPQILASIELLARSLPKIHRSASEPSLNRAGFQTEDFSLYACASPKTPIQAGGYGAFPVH

IC50	SMILES
< 10 µM	Cc1ccc(C(=O)Nc2ccc(Cl)cc2)cc1OCc1nn(C)c2ncnc(N)c12 [Example 17, 3-(4-Amino-1-methyl-1H-pyrazolo[3,4-d]pyrimidin-3-ylmethoxy)-N-(4-chloro-phenyl)-4-methyl-benzamide]
> 10 µM	Cc1nnc(-c2ccc(C)c(OCc3nn(C)c4ncnc(N)c34)c2)o1 [Example 21, 1-Methyl-3-[2-methyl-5-(5-methyl-[1,3,4]oxadiazol-2-yl)-phenoxymethyl]-1H-pyrazolo[3,4-d]pyrimidin-4-ylamine]
< 10 µM	Cc1ccc(OCc2ccc(Cl)cc2)cc1OCc1nn(C)c2ncnc(N)c12 [Example 19, 3-[5-(4-Chloro-benzyloxy)-2-methyl-phenoxymethyl]-1-methyl-1H-pyrazolo[3,4-d]pyrimidin-4-ylamine]
< 10 µM	Cc1ccc(OCc2ccccc2)cc1OCc1nn(C)c2ncnc(N)c12 [Example 15, 3-(5-Benzyloxy-2-methyl-phenoxymethyl)-1-methyl-1H-pyrazolo[3,4-d]pyrimidin-4-ylamine]

Second part, the molecule before the results:

SMILES	IC50
Cc1ccc(NC(=O)c2cccc(Cl)c2)cc1OCc1nn(C)c2ncnc(N)c12 [Example 11, N-[3-(4-Amino-1-methyl-1H-pyrazolo[3,4-d]pyrimidin-3-ylmethoxy)-4-methyl-phenyl]-3-chloro-benzamide]	< 10 µM
Cc1ccc(NC(=O)c2ccc(NCCO)c(Cl)c2)cc1OCc1nn(C)c2ncnc(N)c12 [Example 9, N-[3-(4-Amino-1-methyl-1H-pyrazolo[3,4-d]pyrimidin-3-ylmethoxy)-4-methyl-phenyl]-3-chloro-4-(2-hydroxy-ethylamino)-benzamide]	< 10 µM
Cc1noc(-c2ccc(C)c(OCc3nn(C)c4ncnc(N)c34)c2)n1 [Example 13, 4-Amino-1-1-methyl-3-[2-methyl-5-(3-methyl-[1,2,4]oxadiazol-5-yl)-phenoxymethyl]-1H-pyrazolo[3,4-d]pyrimidine]	> 10 µM
Cn1nc(COc2cccc(OCc3ccccc3)c2)c2c(N)ncnc21 [Example 7, 3-(3-Benzyloxy-phenoxymethyl)-1-methyl-1H-pyrazolo[3,4-d]pyrimidin-4-ylamine]	> 10 µM
